Reference: the supplement of paper PMC10307832

Columns and labels:
Assay in all cases: relative viability (nuclei count vs DMSO), 5 days (fraction); higher = more cells survive
Obatoclax + Alpelisib = compound: COC1=CC(c2cc3ccccc3[nH]2)=N/C1=C\c1[nH]c(C)cc1C [Obatoclax] + Cc1nc(NC(=O)N2CCC[C@H]2C(N)=O)sc1-c1ccnc(C(C)(C)C(F)(F)F)c1 [Alpelisib] (partner 2 µM)
Summary of the method: (§1)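 For relative viability, nuclei counts in treated wells were divided by those in vehicle wells. Lung cancer cell lines had been pin-tool dosed in 1536-well plates the day after seeding and cultured for 5 days, then fixed and stained in one step (final 0.05% Triton X-100, 1% formaldehyde, 1 ug/ml Hoechst) and imaged at 4×. Doses were one drug alone or a fixed anchor-drug dose plus five library-drug doses (not always all listed) in √10 steps, and values are duplicate-plate medians.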

Bortezomib + Tozasertib = compound: CC(C)C[C@H](NC(=O)[C@H](Cc1ccccc1)NC(=O)c1cnccn1)B(O)O [Bortezomib] + Cc1cc(Nc2cc(N3CCN(C)CC3)nc(Sc3ccc(NC(=O)C4CC4)cc3)n2)n[nH]1 [Tozasertib] (partner 0.1 µM)
Summary of the method: as §1

Obatoclax + Foretinib = compound: COC1=CC(c2cc3ccccc3[nH]2)=N/C1=C\c1[nH]c(C)cc1C [Obatoclax] + COc1cc2c(Oc3ccc(NC(=O)C4(C(=O)Nc5ccc(F)cc5)CC4)cc3F)ccnc2cc1OCCCN1CCOCC1 [Foretinib] (partner 0.25 µM)
Summary of the method: as §1

[1] = compound: CC1=CC(=NN1)NC2=CC(=NC(=N2)/C=C/C3=CC=CC=C3)N4CCN(CC4)C + CC(=O)Nc1cccc(-n2c(=O)n(C3CC3)c(=O)c3c(Nc4ccc(I)cc4F)n(C)c(=O)c(C)c32)c1 [Trametinib] (partner 0.02 µM)
Summary of the method: as §1

Cell Line | relative viability (Obatoclax + Alpelisib; first compound 0.01 µM) | relative viability (Obatoclax + Alpelisib; first compound 0.03162 µM) | relative viability (Obatoclax + Alpelisib; first compound 0.1 µM) | relative viability (Obatoclax + Alpelisib; first compound 0.3162 µM) | relative viability (Obatoclax + Alpelisib; first compound 1 µM) | relative viability (Bortezomib + Tozasertib; first compound 0.0002 µM) | relative viability (Bortezomib + Tozasertib; first compound 0.000632 µM) | relative viability (Bortezomib + Tozasertib; first compound 0.002 µM) | relative viability (Bortezomib + Tozasertib; first compound 0.006325 µM) | relative viability (Bortezomib + Tozasertib; first compound 0.02 µM) | relative viability (Obatoclax + Foretinib; first compound 0.01 µM) | relative viability (Obatoclax + Foretinib; first compound 0.03162 µM) | relative viability (Obatoclax + Foretinib; first compound 0.1 µM) | relative viability (Obatoclax + Foretinib; first compound 0.3162 µM) | relative viability (Obatoclax + Foretinib; first compound 1 µM) | relative viability ([1]; first compound 0.08 µM) | relative viability ([1]; first compound 0.253 µM) | relative viability ([1]; first compound 0.8 µM) | relative viability ([1]; first compound 2.53 µM) | relative viability ([1]; first compound 8 µM)
201T | 1 | 0.983 | 1.02 | 1.04 | 1.08 | 0.863 | 0.968 | 1.01 | 0.715 | 0.278 | 1.09 | 1.12 | 1.1 | 1.09 | 0.768 | 0.713 | 0.741 | 0.674 | 0.664 | 0.649
A549 | 0.76 | 0.876 | 0.748 | 0.298 | 0.0816 | – | – | – | – | – | 0.958 | 0.947 | 0.979 | 0.959 | 0.764 | – | – | – | – | –
A-427 | 1.14 | 1.09 | 1.13 | 1.04 | 1.01 | 0.212 | 0.263 | 0.193 | 0.105 | 0.102 | 1.16 | 0.989 | 1.01 | 0.972 | 0.984 | 0.632 | 0.6 | 0.76 | 0.451 | 0.215
ABC-1 | 1.04 | 1.18 | 1.09 | 1.19 | 0.573 | 0.162 | 0.213 | 0.181 | 0.16 | 0.226 | 1.11 | 1.15 | 1.23 | 1.06 | 0.975 | – | – | – | – | –
BEN | 0.963 | 1 | 0.904 | 1.16 | 0.911 | 0.496 | 0.554 | 0.449 | 0.511 | 0.362 | 0.864 | 0.614 | – | 0.631 | 0.678 | 0.901 | 1.07 | 1.02 | 0.895 | 0.31
CAL-12T | 1.14 | 1.29 | 1.01 | 0.695 | 0.129 | 0.322 | 0.285 | 0.358 | 0.193 | 0.106 | 1.11 | 1.16 | 1.09 | 0.343 | 0.134 | 0.362 | 0.292 | 0.259 | 0.102 | 0.104
Calu-6 | 0.899 | 1.01 | 0.898 | 0.677 | 0.205 | – | – | – | – | – | 0.901 | 0.739 | 0.927 | 0.919 | 0.321 | – | – | – | – | –
ChaGo-K-1 | – | – | – | – | – | 0.233 | 0.207 | 0.248 | 0.165 | 0.155 | 0.83 | 0.947 | 0.913 | 0.901 | 1.03 | 0.937 | 0.887 | 0.807 | 0.753 | 0.19
EBC-1 | 0.82 | 0.92 | 0.902 | 0.435 | 0.251 | – | – | – | – | – | 0.102 | 0.112 | 0.119 | 0.119 | 0.113 | – | – | – | – | –
HCC-44 | 0.84 | 0.706 | 0.801 | 0.607 | 0.21 | 0.887 | – | 0.305 | 0.161 | 0.221 | – | – | – | – | – | 1.04 | 1.06 | 1.04 | 1.09 | 0.677
IA-LM | 0.843 | 0.743 | 0.612 | 0.327 | 0.0686 | – | – | – | – | – | 1.17 | 1.18 | 1.03 | 0.624 | 0.0739 | – | – | – | – | –
NCI-H522 | – | – | – | – | – | 0.475 | 0.529 | 0.419 | 0.344 | 0.337 | – | – | – | – | – | 0.856 | 0.676 | 0.823 | 0.688 | 0.362
NCI-H1299 | 1.01 | 1.1 | 0.985 | 1.04 | 1 | – | – | – | – | – | 1.08 | 1.12 | 1.08 | 1.08 | 1.05 | – | – | – | – | –
NCI-H1563 | 0.917 | 0.922 | 0.934 | 0.867 | 0.791 | – | – | – | – | – | 0.903 | 0.91 | 1.04 | 0.824 | 0.806 | – | – | – | – | –
NCI-H1623 | – | – | – | – | – | 0.425 | 0.52 | 0.46 | 0.316 | 0.199 | 0.95 | 0.81 | 0.984 | 0.839 | 0.896 | – | – | – | – | –
NCI-H1648 | – | – | – | – | – | 0.439 | 0.396 | 0.262 | 0.453 | 0.257 | – | – | – | – | – | 0.47 | 0.412 | 0.497 | 0.435 | 0.316
NCI-H1650 | – | – | – | – | – | 0.426 | 0.57 | 0.19 | 0.139 | 0.153 | 1.12 | 1.06 | 1.18 | 0.91 | 0.558 | 0.547 | 0.566 | 0.651 | 0.197 | 0.0762
NCI-H1703 | 0.41 | 0.344 | 0.412 | 0.321 | 0.276 | – | – | – | – | – | 0.379 | 0.309 | 0.301 | 0.382 | 0.303 | – | – | – | – | –
NCI-H1792 | 0.746 | 0.658 | – | 0.638 | 0.781 | – | – | – | – | – | – | – | – | – | – | 0.427 | 0.402 | 0.396 | 0.195 | 0.0298
NCI-H2342 | – | – | – | – | – | 0.765 | 0.471 | 0.511 | 0.409 | 0.313 | 1.05 | 0.947 | 1.09 | 1.04 | 1.03 | 1 | 0.869 | 0.958 | 0.962 | 0.602
SW 900 | – | – | – | – | – | 0.522 | 0.544 | 0.184 | 0.103 | 0.14 | 0.895 | 0.743 | 0.759 | 0.536 | 0.738 | 0.957 | 0.625 | 0.839 | 0.215 | 0.0981
